Common to all, as to set-up: species or system human
The test system of experiment [1] is maternal HIV+ sera (antibodies). Nature of the experiment: RIA / ELISA binding of maternal HIV+ sera to gp120 and gp41 peptides (Example 3). The essentials:
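Maternal sera, diluted 1:50 and 1:500, were bound overnight at 4°C to peptides immobilized at 10 μg/ml (pH 9.6 carbonate) and blocked with 1% BSA. Read-out was ¹²⁵I-labelled anti-human IgG counts or HRP-TMB OD450. Signal with peptide minus without was expressed relative to seronegative serum.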

In experiment [2] the test system is maternal sera (antibodies). Nature of the experiment: ELISA peptide-binding of maternal sera (Example 6). The essentials:
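HIV-1 envelope peptides averaging 16 amino acids, covering external and transmembrane glycoprotein, were probed by ELISA. Third-trimester maternal sera, classed as transmitter or non-transmitter by child diagnosis, were each run on at least 40 peptides. Values give percent of sera binding a peptide.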
On the technique in general: ELISA stands for enzyme-linked immunosorbent assay.

Experiment [3] has as its system sera samples (antibodies). Nature of the experiment: ELISA peptide-binding of maternal sera, MN strain peptides (Example 7). The conditions noted are these: n = 5. The protocol:
This example provides additional sera screens using peptides corresponding to sequences of the MN strain. The sera samples (5 transmitters and 5 non-transmitters) were obtained from the NIH and differ from those screened in the previous studies. Peptide binding was analyzed by ELISA as described in Example 3.

Experiment [4] concerns maternal serum samples (antibodies). Nature of the experiment: ELISA peptide-binding of maternal sera, expanded peptide collection (Example 5). The source says:
The gp120 and gp41 peptides used in this experiment include peptides 60 [SEQ ID NO:9], 93 [SEQ ID NO:10], 94 [SEQ ID NO:1], 95 [SEQ ID NO:11], 96 [SEQ ID NO:12], 97 [SEQ ID NO:13], 59 [SEQ ID NO:14], 106 [SEQ ID NO:15], 107 [SEQ ID NO:[…]], 1029/33 [SEQ ID NO:2], p18p [SEQ ID NO:17], B138 [SEQ ID NO:3], 466 [SEQ ID NO:4], 497 [SEQ ID NO:18], 117 [SEQ ID NO:19], F560 [SEQ ID NO:20], 35 [SEQ ID NO:5], 120 [SEQ ID NO:21], 121 [SEQ ID NO:22], 123 [SEQ ID NO:23], 36 [SEQ ID NO:24], 40 [SEQ ID NO:25], 41 [SEQ ID NO:26], 649 [SEQ ID NO:6], 53 [SEQ ID NO:7], 55 [SEQ ID NO:27], 128 [SEQ ID NO:28], 129 [SEQ ID NO:29], 132 [SEQ ID NO:30], 57 [SEQ ID NO:8], and 1103/55 [SEQ ID NO:31] from Table 2. These peptides were synthesized based on the same HIV IIIB isolate as were the peptides of Table 2. Alternative designations for these peptides are provided in brackets.
Each of the peptides was at least 85% pure, making them suitable for ELISA analyses. The average length of these peptides was 18 amino acid residues, which allows for a certain degree of local flexibility and conformational folding, thus facilitating detection of antibody species with reactivities to shaped structures.
The maternal serum samples were obtained from the Mothers/Infants Cohort Study described in Example 1. For the ELISA peptide-binding analyses performed essentially as described in Example 3, maternal serum samples were diluted to 1:50 or 1:500 with blocking buffer (1% bovine serum albumin in phosphate-buffered saline containing 0.05% Tween 20). Binding was measured using 10 μg/mL peptide per well and was considered positive if the experimental/control OD450nm ratio was ≥2. Normal (HIV seronegative) human sera were used as controls.

Entries after “also recorded” stand apart in the source; their conditions may differ.

Take ELDKWASLWNWFNITNWLWY [Peptide 53]: the “Binding of maternal HIV+ serum to peptide (sera/NHS ratio)” value (from here on “Binding … (sera/NHS ratio)”) in experiment [1] (Serum No. 1, Non-Transmission Group) is “- (specific OD450 or cpm of sera sample binding to peptide divided by the specific OD450 or cpm of NHS sample binding to peptide, which value is less than 2)”; in experiment [1] (Serum No. 2, Non-Transmission Group), “- (specific OD450 or cpm of sera sample binding to peptide divided by the specific OD450 or cpm of NHS sample binding to peptide, which value is less than 2)”; in experiment [1] (Serum No. 3, Non-Transmission Group) it was “- (specific OD450 or cpm of sera sample binding to peptide divided by the specific OD450 or cpm of NHS sample binding to peptide, which value is less than 2)”; in experiment [1] (Serum No. 4, Transmission Group) it was “- (specific OD450 or cpm of sera sample binding to peptide divided by the specific OD450 or cpm of NHS sample binding to peptide, which value is less than 2)”; in experiment [1] (Serum No. 5, Transmission Group), “- (specific OD450 or cpm of sera sample binding to peptide divided by the specific OD450 or cpm of NHS sample binding to peptide, which value is less than 2)”; in experiment [1] (Serum No. 6, Non-Transmission Group), “- (specific OD450 or cpm of sera sample binding to peptide divided by the specific OD450 or cpm of NHS sample binding to peptide, which value is less than 2)”. The “Binding … (sera/NHS ratio)” value is listed as “++ (which value is greater than 3)” in experiment [1] (Serum No. 7, Non-Transmission Group); “- (specific OD450 or cpm of sera sample binding to peptide divided by the specific OD450 or cpm of NHS sample binding to peptide, which value is less than 2)” in experiment [1] (Serum No. 8, Non-Transmission Group); “- (specific OD450 or cpm of sera sample binding to peptide divided by the specific OD450 or cpm of NHS sample binding to peptide, which value is less than 2)” in experiment [1] (Serum No. 9, Non-Transmission Group); “- (specific OD450 or cpm of sera sample binding to peptide divided by the specific OD450 or cpm of NHS sample binding to peptide, which value is less than 2)” in experiment [1] (Serum No. 10, Transmission Group); “- (specific OD450 or cpm of sera sample binding to peptide divided by the specific OD450 or cpm of NHS sample binding to peptide, which value is less than 2)” in experiment [1] (Serum No. 11, Non-Transmission Group); “- (specific OD450 or cpm of sera sample binding to peptide divided by the specific OD450 or cpm of NHS sample binding to peptide, which value is less than 2)” in experiment [1] (Serum No. 12, Non-Transmission Group). Besides, the “Binding … (sera/NHS ratio)” value in experiment [1] (Serum No. 13, Transmission Group) is given as “- (specific OD450 or cpm of sera sample binding to peptide divided by the specific OD450 or cpm of NHS sample binding to peptide, which value is less than 2)”; in experiment [1] (Serum No. 14, Transmission Group), “- (specific OD450 or cpm of sera sample binding to peptide divided by the specific OD450 or cpm of NHS sample binding to peptide, which value is less than 2)”; in experiment [1] (Serum No. 15, Transmission Group), “- (specific OD450 or cpm of sera sample binding to peptide divided by the specific OD450 or cpm of NHS sample binding to peptide, which value is less than 2)”; in experiment [1] (Serum No. 16, Non-Transmission Group) it was “- (specific OD450 or cpm of sera sample binding to peptide divided by the specific OD450 or cpm of NHS sample binding to peptide, which value is less than 2)”; in experiment [1] (Serum No. 17, Non-Transmission Group) it was “+ (which value is between 2 to 3)”; in experiment [1] (Serum No. 18, Non-Transmission Group) it was “- (specific OD450 or cpm of sera sample binding to peptide divided by the specific OD450 or cpm of NHS sample binding to peptide, which value is less than 2)”. Also, the “Binding … (sera/NHS ratio)” value in experiment [1] (Serum No. 19, Transmission Group) was “- (specific OD450 or cpm of sera sample binding to peptide divided by the specific OD450 or cpm of NHS sample binding to peptide, which value is less than 2)”; in experiment [1] (Serum No. 20, Non-Transmission Group) it was “- (specific OD450 or cpm of sera sample binding to peptide divided by the specific OD450 or cpm of NHS sample binding to peptide, which value is less than 2)”. Further, in experiment [2] (Non-Transmitters, N = 12), the “Number of Non-Transmitters which bound to peptide” value turned out to be 0. The “Percent of Non-Transmitters which bound to peptide” value in experiment [2] (Non-Transmitters, N = 12) is given as 0%. The “Number of Transmitters which bound to peptide” value in experiment [2] (Transmitters, N = 4) is recorded as 0. In addition, the “Percent of Transmitters which bound to peptide” value in experiment [2] (Transmitters, N = 4) was determined as 0%. The “% Bound, Non-Transmitter” value in experiment [3] (Non-Transmitter) amounted to 0%. The “No. of Sera Samples Bound, Non-Transmitter” value in experiment [3] (Non-Transmitter) was found to be 0. Besides, the “% Bound, Transmitter” value in experiment [3] (Transmitter) worked out at 0%. For the same sequence, the “No. of Sera Samples Bound, Transmitter” value in experiment [3] (Transmitter) was found to be 0.
LGIWGCSGKLIC [Peptide 41-2]: the “Binding / reactivity of maternal sera to peptide (in words)” value in experiment [4] (Example 5) is reported as “Virtually all samples reacted; also recorded: recognized by the transmission group”. In addition, the “Percent of both groups that bound to the peptide” value in experiment [4] (transmission and non-transmission groups) turned out to be 90%.
